The values that follow come from PMC10222203 (Pharmaceutics, 2023).

The conditions of data set [1]: rat, tissue homogenate.
For data set [2] the following is noted: rat, plasma, Fraction unbound in plasma, fu,plasma, undiluted rat plasma, 1 µM, equilibrium dialysis 6 h 37 °C. In general terms: In equilibrium dialysis free small molecules cross a membrane that holds back macromolecules.
Method: Peptide binding to plasma proteins, brain tissue homogenate, and lung tissue homogenate as well as to neuronal and astrocyte cell culture homogenates was investigated using equilibrium dialysis [47]. Undiluted plasma and brain from three peptide-naïve rats were used in the experiment. The brain homogenate was prepared by homogenizing 1 part brain with 4 parts of phosphate-buffered saline (PBS, pH 7.4). […] Semi-permeable membranes with a molecular weight cut-off of 12–14 kDa were used and placed in an HTD96b apparatus (HTDialysis, Gales Ferry, CT, USA). The undiluted plasma and respective homogenates were spiked with individual peptide to a concentration of 1 µM and were dialyzed against PBS (pH 7.4). Five technical replicates were prepared per biological replicate. The experiment was run for 6 h at 37 °C in a MaxQ4450 shaker (Thermo Fisher Scientific, NinoLab, Sweden) at 200 rpm. […] Aliquots (80 µL) were taken from the buffer and plasma/homogenate sides. To compensate for any differences in matrix during bioanalysis, the plasma and homogenate samples were mixed with equal volumes of blank buffer, and the buffer samples were mixed with an equal volume of relevant blank plasma/homogenate. Spiked plasma and respective homogenate samples were incubated to control for relative recovery and thermal stability of the peptides in respective matrices.
The unbound fraction in undiluted plasma was calculated using Equation (5), where Cbuffer is the unbound concentration of peptide in the buffer and Cplasma is the total concentration of peptide in plasma at 6 h. The binding of peptide in various homogenates was assessed in two steps. First, the fraction of unbound peptide in the diluted homogenate, fu,h,D, was calculated using Equation (6), where Chomogenate is the total concentration of peptide in respective homogenate at 6 h. Second, the correction for the dilution was implemented as described in Equation (7), where D is the dilution factor used in the preparation [47]. D was 5 for brain and lung homogenates and on average 35.3 for the cell culture studies, as determined based on the total protein content and the total volume of lysate. (5) fu,plasma=Cbuffer/Cplasma (6) fu,h,D=Cbuffer/Chomogenate (7) fu,tissue/cell=1/D/((1/fu,h,D )−1)+1/D
The test system of another data set is lung slices. The settings on record: rat lung slices, 200 nM, 5 h, 37 °C. The procedure: (§1) In short, lung slices were prepared by performing an in situ perfusion of the lungs of the rats with physiological saline and then filling them with agarose Type VII-A to facilitate slicing. Slices of 500 µm thickness were prepared using the Leica VT1200 microtome slicer (Leica Microsystems, Wetzlar, Germany). […] After a 5 h incubation at 37 °C in an incubated shaker (MaxQ4450 Thermo Fisher Scientific, NinoLab, Stockholm, Sweden) with a rotation speed of 45 rpm, the buffer and lung slices were sampled. To match the matrix of the lung slice samples, 200 μL of aECF was mixed with 200 μL of blank agarose-filled lung homogenate (1:4, w:v). The lung slices were individually removed, dried on filter paper, weighed, and thereafter homogenized in 9 volumes (w:v) of aECF with an ultrasonic processor (VCX-130; Sonics, Chemical Instruments AB, Stockholm, Sweden). All samples were stored at −20 °C pending LC-MS/MS analysis. Assuming that at equilibrium the concentration of the peptide in virtually protein-free buffer is equal to the interstitial fluid concentration in the lung slice, the Vu,lung (mL/g lung) was estimated using Equation (4) as a ratio of the amount of compound in the lung slice (Alung, nanomoles g lung) to the measured final buffer concentration (Cbuffer, micromole/L). […]

For data set [3] the following is noted: rat. The procedure:
as §1

On the set-up of data set [4]: method as in PubChem. To be noted: estimates from PubChem; ref PubChem; cited from earlier work.
The conditions of data set [5]: cell lysates vs brain homogenate, on average.

One may read the fraction unbound as free concentration divided by total concentration. Read a low fraction unbound as little free substance.

Where two headings read alike, the source gives them in different places.

As for `CC(C)C[C@@H]1NC(=O)CNC(=O)[C@H](CC(N)=O)NC(=O)[C@H](CCCNC(=N)N)NC(=O)[C@H]([C@@H](C)O)NC(=O)[C@@H]2CSSC[C@@H]3NC(=O)[C@H]([C@@H](C)O)NC(=O)CNC(=O)CNC(=O)[C@H](C(C)C)NC(=O)[C@@H]4CSSC[C@H](NC(=O)[C@H]([C@@H](C)O)NC(=O)[C@H](CSSC[C@H](NC(=O)[C@H](C(C)C)NC(=O)[C@@H]5CCCN5C1=O)C(=O)NCC(=O)N[C@@H](CCC(=O)O)C(=O)N[C@@H]([C@@H](C)O)C(=O)N4)NC(=O)CNC(=O)[C@@H]1CCCN1C(=O)[C@H]([C@@H](C)O)NC(=O)[C@H](CC(N)=O)NC3=O)C(=O)N[C@@H](CO)C(=O)N[C@@H](Cc1c[nH]c3ccccc13)C(=O)N1CCC[C@H]1C(=O)N[C@@H](C(C)C)C(=O)N2` [Kalata B1], the fraction unbound in data set [1] stood at 0.0377 ± 0.0079; in data set [2], 0.3. In the data set on lung slices, the “Vu,lung” value is recorded as 1.23 mL/g lung. Besides, in data set [3], the Kp uu was determined as 0.195 ± 0.107.

`CC[C@H](C)[C@@H]1NC(=O)[C@@H]2CCCN2C(=O)[C@@H]2CCCN2C(=O)[C@H]([C@@H](C)CC)NC(=O)[C@H](CO)NC(=O)[C@H](CCCCN)NC(=O)[C@H]([C@@H](C)O)NC(=O)[C@@H]2CSSC[C@H](NC1=O)C(=O)N[C@@H](Cc1ccccc1)C(=O)N1CCC[C@H]1C(=O)N[C@@H](CC(=O)O)C(=O)NCC(=O)N[C@@H](CCCNC(=N)N)C(=O)N2` [SFTI-1, sunflower trypsin inhibitor-1]: in data set [4], the Predicted net charge is 0. The “fu,cell fold lower than fu,brain” value in data set [5] came out at 3 fold.
